The results in this text go back to US8288549B2, “Glycine B antagonist” (Merz Pharma GmbH & Co. KGaA, priority 2008, dated 2012).

In data set [1] the target is T1, glycine binding pocket of the NMDA receptor (Rattus norvegicus, UniProt P35439).
T1 construct: The cortex is dissected out and processed as described by Parsons, et al; from tissue; host or cells: rat cerebral cortex membranes (male Sprague-Dawley)
Kind of data set: [3H]-MDL-105,519 displacement studies on rat cortical membranes. Conditions: displacement of 2 nM [3H]-MDL-105,519, rat cortical membranes, 4° C., 1 h; read-out: NMDA-MDL 105519-r-CTX - IC50. The protocol:
[^3]MDL-105,519 Displacement Studies
For the evaluation of the binding affinity of the test compounds on the glycine binding pocket of the NMDA receptor, [^3H]-MDL-105,519 (GE Healthcare, Freiburg, Germany) displacement studies are performed using a 96-well plate robotic platform. MDL-105,519 (Baron et al., J Pharmacol Exp Ther 1996, 279(1), 62-68; Baron et al., European Journal of Pharmacology, 1997, 323(2-3), 181-192; Hoffner & Wanner, Neuroscience Letters, 1997, 226(2), 79-82) is a selective, high affinity antagonist at the NMDA receptor glycine site.
Tissue preparation is performed according to Foster & Wong (Br J Pharmacol, 1987, 91, 403-409) with some modifications. Anaesthetised male Sprague-Dawley rats (200-250 g, Janvier, Le Genest-Isle, France) are decapitated and their brains removed rapidly. The cortex is dissected out and processed as described by Parsons, et al. (J Pharmacol Exp Ther, 1997, 283(3), 1264-1275). For isolation of the cell membranes, the cortices are homogenized in 20 volumes of ice-cold 0.32 M sucrose (Sigma-Aldrich, Taufkirchen, Germany) using a glass-Teflon homogenizer. The homogenate is centrifuged at 1000×g for 10 minutes, the pellet is discarded and the supernatant centrifuged at 20,000×g for 20 minutes. The resulting pellet is re-suspended in 20 volumes of distilled water and centrifuged for 20 minutes at 8000×g. The supernatant and the buffy coat are then centrifuged three times (48,000×g for 20 minutes) in the presence of 50 mM Tris-HCl, pH 8.0 (assay buffer). All centrifugation steps are carried out at 4° C. After resuspension in 5 volumes of 50 mM Tris-HCl, pH 7.5, the membrane suspension is frozen rapidly at −80° C. On the day of assay, the membranes are thawed and washed four times by resuspension in 50 mM Tris-HCl, pH 7.5, and centrifugation at 48,000×g for 20 minutes. The final pellet is suspended in assay buffer. The amount of protein in the final membrane preparation is determined according to the method of Lowry, et al. (J. Biological Chemistry, 1951, 193, 256-275) with some modifications (Hartree, Analytical Biochemistry, 1972, 48, 422-427). The final protein concentration used for our studies is 400 μg/ml.
A robotic system designed for binding assays (Tecan Deutschland GmbH, Crailsheim, Germany) is loaded with the membrane solution, solutions for bound control (buffer/DMSO 20%), unlabeled glycine (1 mM) for evaluation of non-specific binding, all compounds to be tested (at 20-fold concentrations), radioligand and respective 96-well plates.
Before performing displacement studies, saturation experiments are performed to determine the equilibrium dissociation constant (Kd) of [^3H]-MDL-105,519, which is a parameter for the affinity of the radioligand to the binding site. The protein/receptor concentration is held constant whereas the amount of specific bound radioligand is determined using increasing concentrations of ligand.
On the basis of the saturation experiments, a final [^3H]-MDL-105,519 concentration of 2 nM is selected. Firstly, the assay plates are loaded with membrane solution and are shaken at 4° C. The mother plates are then prepared by pipetting the compounds (n=4) into assay buffer/20% DMSO to obtain the desired final concentrations. After transferring radioligand into the assay plates, the compounds are added (including the bound and the non-specific binding control). The final DMSO concentration is 1%. The assay plates are incubated and shaken at 4° C. for 1 h, before the mixture is exhausted as rapidly as possible via a vacuum manifold using the Multiscreen HTS glass fibre (type B) filter plates (Millipore, Schwalbach, Germany) under a constant vacuum of 450 mbar. The membranes are washed four times with cold assay buffer (100 μL). […]

In data set [2] the target is T2, NMDA receptor glycine B site (Rattus norvegicus, UniProt P35439).
T2 construct: Hippocampi are then isolated from the brains of at least 8 embryos after decapitation; endogenous in cells; host or cells: primary cultured hippocampal neurons from E20 Sprague-Dawley rat embryos, 11-15 DIV
As to the kind of experiment: Whole cell patch-clamp recordings in cultured rat hippocampal neurons (NMDA/D-Serine evoked currents). In kind it is cell-based. Conditions: NMDA (200 μM) and D-Serine (1 μM), holding potential −70 mV, read-out: NMDA-PC-r-HIC-NAM - IC50. The protocol:
Antagonistic potencies of the test compounds are functionally evaluated using electrophysiological whole cell patch-clamp recordings and/or fluorometric intracellular Ca^2+-imaging (FLIPR) screens.
Cell preparation is performed as described by Parsons, et al. (Neuropharmacology, 1998, 37(6), 719-727). The female Sprague-Dawley rat is anaesthetised by placing in a saturated CO2-euthanasia chamber under further quiet CO2-influx. Under these conditions the rat loses consciousness after a few seconds and is then sacrificed by cervical dislocation. After opening the abdominal cavity, embryos (E20) are removed and stored in ice cold Ca^2+- and Mg^2+-free Hank's Buffered Salt Solution (pH 7.3), containing 4 g/l glucose (HBSS-CMF). Hippocampi are then isolated from the brains of at least 8 embryos after decapitation, transferred into ice cold HBSS-CMF and washed 3 to 4 times.
Hippocampi are pre-incubated for 8 min with a 0.66% trypsin (Sigma-Aldrich) and 0.1% (20 U/ml) DNAase solution (Sigma-Aldrich) in Ca^2+-free Phosphate Buffered Saline (PBS-CF) and washed 3 times with HBSS-CMF. Cells are then mechanically dissociated by trituration in a PBS-CF solution containing 0.05% (10 U/ml) DNAase and 0.3% of the trypsin inhibitor ovomucoid (all from Sigma-Aldrich). The cells are then centrifuged at 180×g for 10 minutes, and the cell pellet re-suspended in basal Minimum essential medium (MEM, Invitrogen, Karlsruhe, Germany), again carefully triturated to ensure maximal dissociation and finally plated in the flexiPERM inserts (Thermo Fisher Scientific, Langenselbold, Germany) at a density of 15×10^3 cells/cm^2 (0.5 ml/insert) onto poly-DL-ornithine (Sigma) and mouse laminin (Invitrogen) pre-coated plastic petri dishes. After 1 hour the cells become attached to the bottom of the dish and the inserts may be removed. The cells are then nourished with 2 ml MEM supplemented with 5% foetal calf serum (FCS) and 5% horse serum and incubated at 37° C. with 95% air and 5% CO2 at 95% humidity. After 4 days in vitro (DIV) further glial mitosis is inhibited by adding 10 μl of AraC (5 μM endconcentration). The medium is completely exchanged after an additional 2 DIV and again, but only partly (50%), after 8 DIV. The cells are used for electrophysiological recordings after 11-15 DIV.
Cells are visualised using an inverted microscope and selected for patching based upon their position and morphology. Voltage clamp recordings are made in the whole cell configuration of the patch clamp technique at a holding potential of −70 mV with the aid of an EPC-10 amplifier in combination with pipette manipulator. Patch clamp pipettes are pulled from borosilicate glass using a horizontal puller (P-97 Puller, Sutter Instruments, USA) and, when filled with intracellular solution, have resistances of 1-4 MΩ.
Solutions are delivered via a home-made gravity driven very fast perfusion system (<10 ms) including valves to switch flow on and off in combination with a stepper motor-driven double-barreled theta glass application pipette in order to expose cells to either agonist-free or agonist-containing solutions in presence or absence of antagonist.
The intracellular solution used consists of: 120 mM CsCl, 10 mM EGTA, 1 mM MgCl2, 200 μM CaCl2, 10 mM glucose and 22 mM tetraethyl ammonium chloride (TEA-CL). The corresponding extracellular bath solution contains: 140 mM NaCl, 3 mM KCl, 10 mM glucose, 10 mM HEPES, 1.5 mM CaCl2 and 4.5 mM sucrose (all from Sigma-Aldrich) pH 7.3, and is supplemented with 0.3 μM tetrodotoxin (TTX, Tocris, Bristol, U.K.) to block voltage-activated sodium channels and 0.25 μM bicuculline (Sigma-Aldrich) to block GABAA receptors. […]
(In general: In patch-clamp work, channel activity is measured electrically.)

A value given as a limit tells only on which side of the number the result lay.

What is called IC50 is the point on the concentration scale where inhibition reaches its midpoint. For `O=C(O)c1cc2cc(Cl)ccc2nc1N[C@@H](Cc1ccc(Oc2ccc3cc(Br)cnc3n2)cc1)C(=O)O` [Example 147, 2-{(S)-2-[4-(6-Bromo-[1,8]naphthyridin-2-yloxy)-phenyl]-1-carboxy-ethylamino}-6-chloro-quinoline-3-carboxylic acid], in data set [1], the concentration for half-maximal inhibition (IC50) amounted to 290 nM.
The term melting point denotes the temperature of the solid-liquid transition. As to `N.N.O=C(O)c1cc2cc(Cl)ccc2nc1NC(Cc1ccccc1F)C(=O)O` (stereo not drawn) [Example 40, 2-[1-Carboxy-2-(2-fluoro-phenyl)-ethylamino]-6-chloro-quinoline-3-carboxylic acid ammonium salt], the melting point is 144 to 148 °C (dec.). For the same compound, in data set [2], the IC50 came to 754 nM.
On to `O=C(O)c1cc2cc(Cl)cc(Cl)c2nc1N[C@@H](Cc1c[nH]c2ccccc12)C(=O)O` [Example 155, 2-[(S)-1-Carboxy-2-(1H-indol-3-yl)-ethylamino]-6,8-dichloro-quinoline-3-carboxylic acid], for which the IC50 in data set [1] was 1030 nM.
Compound `Nc1cc(C[C@H](Nc2nc3ccc(Cl)cc3cc2C(=O)O)C(=O)O)ccc1Oc1nc2ccc(Cl)cc2cc1C(=O)O` [Example 48, 2-{(S)-2-[3-Amino-4-(3-carboxy-6-chloro-quinolin-2-yloxy)-phenyl]-1-carboxy-ethylamino}-6-chloro-quinoline-3-carboxylic acid] showed a melting point greater than 250 °C. The IC50 in data set [2] amounted to 680 nM.
As to `O=C(O)c1cc2cc(Cl)ccc2nc1N[C@@H](Cc1ccc(OCc2ccccc2)cc1)C(=O)O` [Example 22, 2-[(S)-2-(4-Benzyloxy-phenyl)-1-carboxy-ethylamino]-6-chloro-quinoline-3-carboxylic acid], the half-maximal inhibitory concentration (IC50) in data set [1] came out at 2700 nM.
In turn, `O=C(O)c1cc2cc(Br)ccc2nc1N[C@H](Cc1ccccc1)C(=O)O` [Example 47, 6-Bromo-2-((R)-1-carboxy-2-phenyl-ethylamino)-quinoline-3-carboxylic acid] registered a melting point of 140 to 141 °C. Moreover, in data set [2], the IC50 worked out at 468 nM.
For `O=C(O)c1cc2cc(Cl)ccc2nc1NC(Cc1ccc(Oc2nc3ccccc3cc2C(=O)O)cc1)C(=O)O` (stereo not drawn) [Example 110, 2-{1-Carboxy-2-[4-(3-carboxy-quinolin-2-yloxy)-phenyl]-ethylamino}-6-chloro-quinoline-3-carboxylic acid], the IC50 in data set [2] turned out to be 380 nM.
Take `O=C(O)c1cc2cc(Cl)ccc2nc1Nc1ccc(CC(Nc2nc3ccc(Cl)cc3cc2C(=O)O)C(=O)O)cc1` (stereo not drawn) [Example 59, 2-{1-Carboxy-2-[4-(3-carboxy-6-chloro-quinolin-2-ylamino)-phenyl]-ethylamino}-6-chloro-quinoline-3-carboxylic acid]: the melting point was > 250 °C (dec.). Also, in data set [2], the IC50 amounted to 640 nM.
For the compound `O=C(O)c1cc2cc(Cl)ccc2nc1N[C@@H](Cc1ccc(Oc2ccnc3cc(Cl)ccc23)cc1)C(=O)O` [Example 142, 2-{(S)-1-Carboxy-2-[4-(7-chloro-quinolin-4-yloxy)-phenyl]-ethylamino}-6-chloro-quinoline-3-carboxylic acid], the IC50 in data set [1] was found to be 1440 nM.
As for `O=C(O)c1cc2cc(Cl)ccc2nc1N[C@@H](Cc1ccc(Oc2nc3ccc(Cl)cc3cc2C(=O)O)cc1)C(=O)O` [Example 8, 2-{(S)-1-Carboxy-2-[4-(3-carboxy-6-chloroquinolin-2-yloxy)-phenyl]-ethylamino}-6-chloro-quinoline-3-carboxylic acid], the IC50 in data set [1] was found to be 450 nM.
In the case of `CC(c1ccccc1)C(Nc1nc2ccc(Cl)cc2cc1C(=O)O)C(=O)O` (stereo not drawn) [Example 31, erythro-2-(1-Carboxy-2-phenyl-propylamino)-6-chloro-quinoline-3-carboxylic acid], the IC50 in data set [1] came to 3370 nM.
As to `O=C(O)c1cc2cc(Cl)ccc2nc1NC(C(=O)O)C(C(=O)O)c1ccccc1` (stereo not drawn) [Example 79, 2-(3-Carboxy-6-chloro-quinolin-2-ylamino)-3-phenyl-succinic acid], the melting point is 165 to 170 °C (dec.). For the same compound, the IC50 in data set [2] was determined as 250 nM.
With `O=C(O)C[C@H](Nc1nc2ccc(Cl)cc2cc1C(=O)O)C(=O)O` [Example 114, (S)-2-(3-Carboxy-6-chloro-quinolin-2-ylamino)-succinic acid ammonia hydrate], in data set [2], the half-inhibitory concentration (IC50) came out at 720 nM.
`O=C(O)c1cc2cc(Cl)ccc2nc1N[C@@H](Cc1ccc(Oc2ccc(Br)cn2)cc1)C(=O)O` [Example 101, 2-{(S)-2-[4-(5-Bromo-pyridin-2-yloxy)-phenyl]-1-carboxy-ethylamino}-6-chloro-quinoline-3-carboxylic acid]: the melting point was 145 to 150 °C. Moreover, the IC50 in data set [2] was 420 nM.
For `O=C(O)c1cc2cc(Cl)ccc2nc1N[C@@H](Cc1ccc(Oc2ccc(I)cn2)cc1)C(=O)O` [Example 131, 2-{1-Carboxy-2-[4-(5-iodo-pyridin-2-yloxy)-phenyl]-ethylamino}-6-chloro-quinoline-3-carboxylic acid], the concentration for half-maximal inhibition (IC50) in data set [2] turned out to be 170 nM.
